Our source for the IC50 and inhibition values is the COVID Moonshot data (paper PMC11187573), “Identification of SARS-CoV-2 Mpro inhibitors through deep reinforcement learning for de novo drug design and computational chemistry approaches” (RSC Medicinal Chemistry, 2024).

The target in this experiment is SARS-CoV-2 Main Protease (SARS-CoV-2) (UniProt P0DTD1).

As for `COC[C@@]1(C(=O)Nc2cncc3ccccc23)CCOc2cc(Cl)c(Cl)cc21` (stereo in doubt), the IC50 (as a rule, the concentration that inhibits the measured activity by half) came out at 16.9 µM. For `CC(C)Cn1cc(NC(=O)N2CCC(Cc3ccccc3)CC2)c2ccccc2c1=O`, the inhibition (in general, the relative decrease from the control value, in per cent) by setting is: (20.0 µM) -4.27%; (50.0 µM) 3.43%. Consider `COc1cc(Cl)c(C)cc1NC(=O)Nc1cn(C)c(=O)c2ccccc12`, for which the inhibition reads like this: (20.0 µM) 23.7%; (50.0 µM) 5.81%.

As to `CC(=O)c1cccc(NC(=O)Nc2cn(C)c(=O)c3ccccc23)c1`, the inhibition reads like this: (20.0 µM) 22.4%; (50.0 µM) 11.9%. Regarding `CCN(CC)S(=O)(=O)c1ccc(NC(=O)Nc2cn(C)c(=O)c3ccccc23)cc1`, the inhibition (20.0 µM) came out at 0.771% and the inhibition (50.0 µM) is -1.21%.

In the case of `Cc1ccc2nc(Nc3cc(Cl)cc(CC(=O)Nc4cncc5ccccc45)c3)sc2c1`, the IC50 is 0.45 µM.

For `CC(C)Cn1cc(NC(=O)NCC2CCCO2)c2ccccc2c1=O` (stereo not given), the inhibition was -0.42% (20.0 µM) and 6.75% (50.0 µM). The corresponding values for `COC(=O)c1sccc1NC(=O)Nc1cn(CC(C)C)c(=O)c2ccccc12` are -3.98% and -0.958%. Taken in the same sequence, the figures for `COc1ccc(OC)c(CNC(=O)Nc2cn(CC(C)C)c(=O)c3ccccc23)c1` were 18.5% and 0.63%. Regarding `Cc1cccnc1NC(=O)Nc1cn(CC(C)C)c(=O)c2ccccc12`, the inhibition by setting is: (20.0 µM) -0.204%; (50.0 µM) -1.16%. For the molecule `CN(C)C(=O)c1cc2cnc(Nc3ccc(N4CCNCC4)cn3)nc2n1C1CCCC1`, the inhibition was -3.84% (20.0 µM) and -4.06% (50.0 µM). Taken in the same sequence, the figures for `O=C(Nc1cnn2ccc(N3CCC[C@@H]3c3cc(F)ccc3F)nc12)N1CC[C@H](O)C1` (stereo in doubt) were -17.2% and -4.24%. Taken in the same sequence, the figures for `Nc1cc(C(F)(F)F)c(-c2nc(N3CCOCC3)nc(N3CCOCC3)n2)cn1` were 5.19% and 5.97%. Consider `CC(C)N(C(=O)Cc1c(O)c2ccccc2[nH]c1=O)C(C)C`, for which the inhibition was -0.198% (20.0 µM) and -0.251% (50.0 µM). As to `Cn1cc(NC(=O)NCc2ccccn2)c2ccccc2c1=O`, the inhibition was -2.84% (20.0 µM) and -6.9% (50.0 µM).

As for `C[C@@H]1COCCN1c1cc(C2([S@](C)(=N)=O)CC2)nc(-c2cncc3[nH]ccc23)n1` (stereo in doubt), the inhibition (20.0 µM) was -0.821% and the inhibition (50.0 µM) is 3.82%.

Regarding `Cn1cc(NC(=O)Nc2cccc(C(F)(F)F)c2)c2ccccc2c1=O`, the inhibition was -2.91% (20.0 µM) and 0.168% (50.0 µM). `C[C@@H]1CC[C@@H](c2ccoc2)N2C1CC[C@@]1(CS[C@@]3(CC[C@H]4[C@H](C)CC[C@@H](c5ccoc5)N4[C@@H]3O)C1)[C@@H]2O` (stereo in doubt): the inhibition runs as follows: (20.0 µM) -19.4%; (50.0 µM) -23.4%.

Turning to `Cn1cnc(CN(C(=O)c2cnnn2-c2ccccc2)c2ccc(OCc3ccccc3)cc2)c1`, the inhibition is -1.63% (20.0 µM) and 1.89% (50.0 µM).

`CC(NC(=O)c1cc2n(n1)CCO2)(C(=O)Nc1cncc2ccccc12)c1ccc(Cl)c(Cl)c1` (stereo not given) came in with an IC50 of 8.52 µM. With `CC(C)Cn1cc(NC(=O)NC2CCCc3ccccc32)c2ccccc2c1=O` (stereo not given), the inhibition stood at 26.4% (20.0 µM) and 12.2% (50.0 µM). On to `COc1cc2c(cc1OC)C(C)N(C(=O)Nc1cn(C)c(=O)c3ccccc13)CC2` (stereo not given), for which the inhibition is, setting by setting: (20.0 µM) 51.2%; (50.0 µM) 5.23%. `Cn1c(-c2ccc(NC(=O)C3CCCCC(=O)N3)cc2)nc2ccccc21` (stereo not given): the inhibition reads like this: (20.0 µM) -3.33%; (50.0 µM) -2.97%.

`CCOC(=O)Cc1csc(NC(=O)Nc2cn(CC(C)C)c(=O)c3ccccc23)n1`: the inhibition reads like this: (20.0 µM) 23.2%; (50.0 µM) 2.55%. Taken in the same sequence, the figures for `Cc1[nH]c2ncnc(NC(=O)c3cccc4c3oc(=O)n4C)c2c1C` were 2.86% and 6.1%.

With `O=C(Cn1ccnc1[N+](=O)[O-])NCc1ccccc1`, the inhibition (20.0 µM) is -7.12% and the inhibition (50.0 µM) was 4.09%. Turning to `Cn1cc(NC(=O)NCCc2ccsc2)c2ccccc2c1=O`, the inhibition was found to be 14.5% (20.0 µM) and 8.36% (50.0 µM).

On to `Cc1[nH]c2ncnc(NC(=O)C3CCN(c4ccc(Cl)cn4)CC3)c2c1C`, for which the inhibition (20.0 µM) is -8.15% and the inhibition (50.0 µM) is -5.21%. On to `CCCc1c(C)[nH]c2[nH]n(-c3ccccc3)c(=O)c2c1=O`, for which the inhibition by setting is: (20.0 µM) 4.23%; (50.0 µM) 2.81%. The molecule `CCN(Cc1ccc(F)cc1)c1cc(Cl)cc(CC(=O)Nc2cncc3ccccc23)c1` showed an IC50 of 1.41 µM. For `CC(NC(=O)COc1ccc(C(N)=O)cc1)(C(=O)Nc1cncc2ccccc12)c1ccc(Cl)c(Cl)c1` (stereo not given), the IC50 amounted to 12.3 µM. On to `COC(=O)C(c1ccccc1Cl)N1CCC(S)/C(=C/C(=O)O)C1` (stereo not given), for which the inhibition was -2.05% (20.0 µM) and 1.77% (50.0 µM).

`COc1ccc(N2C(=O)CCS2(=O)=O)cc1S(=O)(=O)Nc1cccc2cccnc12`: the inhibition (20.0 µM) was found to be 65.3% and the inhibition (50.0 µM) worked out at 37.4%. As to `COc1ccc(OC)c(CNC(=O)Nc2cn(C)c(=O)c3ccccc23)c1`, the inhibition (20.0 µM) was determined as 25% and the inhibition (50.0 µM) stood at 3.4%.

Regarding `CC(C)Cn1cc(NC(=O)NCc2ccco2)c2ccccc2c1=O`, the inhibition runs as follows: (20.0 µM) 50.5%; (50.0 µM) 90.3%.

In turn, `COc1ncc(Br)cc1Nc1cc(Cl)cc(CC(=O)Nc2cncc3ccccc23)c1` came in with an IC50 of 0.681 µM. `COc1ccc2nc(NC(=O)Nc3cn(CC(C)C)c(=O)c4ccccc34)sc2c1`: the inhibition was determined as 21.3% (20.0 µM) and 17.6% (50.0 µM). The corresponding values for `O=C(Nc1nncn1C1CC1)C1CCOc2c(F)cccc21` (stereo not given) are 2.37% and 3.56%. The corresponding values for `COc1ccccc1OCCNC(=O)c1cc(=O)[nH]c2cccc(OC)c12` are 84.4% and 90.9%.

On to `COc1cc(Cl)c(C)cc1NC(=O)Nc1cn(CC(C)C)c(=O)c2ccccc12`, for which the inhibition is, setting by setting: (20.0 µM) 5.7%; (50.0 µM) 9.03%. In the case of `COc1cc(Cl)nc(Nc2cc(Cl)cc(CC(=O)Nc3cncc4ccccc34)c2)n1`, the IC50 amounted to 0.504 µM. For the molecule `COc1ccc(NC(=O)Nc2cn(C)c(=O)c3ccccc23)cc1OC`, the inhibition runs as follows: (20.0 µM) 1.6%; (50.0 µM) 10.8%. Take `CC1CN(C)CCN1C(=O)CC1(C(=O)Nc2cncc3ccccc23)CCOc2ccc(Cl)cc21` (stereo not given): the IC50 was found to be 6.18 µM.

On to `O=C(Nc1cncc2ccccc12)[C@H]1COc2ccc(Cl)cc21` (stereo in doubt), for which the IC50 amounted to 26.9 µM. The same measure, in the same setting: to `O=C(CC1(C(=O)Nc2cncc3ccccc23)CCOc2ccc(Cl)cc21)N1CCOCC1CC(F)F` (stereo not given) belongs 9.84 µM.

Turning to `Cn1cc(NC(=O)N2CCN(C(=O)c3ccco3)CC2)c2ccccc2c1=O`, the inhibition runs as follows: (20.0 µM) -4.83%; (50.0 µM) -2.88%. Regarding `Cn1ccc(CN(C(=O)Cc2cccnc2)c2ccc(-c3ccccn3)cc2)n1`, the inhibition (20.0 µM) was 6.62% and the inhibition (50.0 µM) worked out at 16.1%. Regarding `CC1(C)CN(C(=O)c2ccc(-c3cccc4nc(NC(=O)C5CC5)nn34)cc2)C1`, the inhibition (20.0 µM) was -1.13% and the inhibition (50.0 µM) came to 0.838%. Take `O=C(Nc1c[nH]nc1-c1ccccn1)c1cccc2nccn12`: the inhibition by setting is: (20.0 µM) 2.59%; (50.0 µM) 9.01%.

Consider `CCn1c(=O)c(-c2cc[nH]n2)cc2c(C)nc(N)nc21`, for which the inhibition is, setting by setting: (20.0 µM) -0.487%; (50.0 µM) 4.38%.
